Measurements as given in paper PMC8187479, “Sugar phosphate activation of the stress sensor eIF2B” (Nature Communications, 2021).
Where “and” joins values, the source holds several entries; their conditions need not be identical. Equal entries are not always repeated.

How the values were obtained:
[1] = target: T1, eIF2B in eIF2Bα^E198K HEK293T lysate (Homo sapiens, UniProt P49770+Q14232+Q9UI10, E198K); assay: GEF activity assay with eIF2Bα E198K HEK293T lysate; assay type: biochemical
T1 construct: endogenous in cells; host or cells: HEK293T, CRISPR knock-in eIF2Bα E198K (homozygous), lysate
Description: (§1) Bodipy-FL-GDP-loaded eIF2 was used as a substrate for recombinant eIF2B. The assay was performed in 384-well plates. Reactions were read on a SpectraMax i3x plate reader (Molecular Devices) using the instrument’s Softmax Pro software with the following parameters: plate temperature = 25 °C; excitation wavelength = 485 nm (15 nm width); emission wavelength = 535 nm (25 nm width); read duration = 30 min at 45 s intervals. Data were analyzed in Prism. GDP release half-lives were calculated by fitting single-exponential decay curves.
(§2) For unbiased screening, MIDAS metabolite libraries at 10 mM stock concentration were dispensed into wells of the assay plate using an Echo Acoustic Liquid Handler (Labcyte). In a final assay volume of 10 μL/well, the following conditions were kept constant: 25 nM Bodipy-FL-GDP-loaded eIF2, 4 nM phospho-eIF2, 0.1 mM GDP, 1 mg/mL BSA, 1 nM eIF2B, 10 μM metabolite. A single well was run for each metabolite. For targeted experiments with recombinant wild-type and mutant eIF2Bα, the following conditions were used: 50 nM Bodipy-FL-GDP-loaded eIF2, 0.1 mM GDP, 1 mg/ml BSA, 20 nM eIF2B. For targeted experiments with HEK293T lysates, the following conditions were used: 50 nM Bodipy-FL-GDP-loaded eIF2, 0.1 mM GDP, 1 mg/ml BSA, 0.1 or 0.3 mg/ml lysates.

[2] = target: T2, eIF2B in WT HEK293T lysate (Homo sapiens, UniProt P49770+Q14232+Q9UI10); assay: GEF activity assay with WT HEK293T lysate; assay type: biochemical
T2 construct: endogenous in cells; host or cells: HEK293T (wild type) lysate
Description: as §1, §2

[3] = target: T3, eIF2B decamer in eIF2Bα^E198K HEK293T lysate (Homo sapiens, UniProt P49770+Q14232+Q9UI10, E198K); assay: Sucrose gradient centrifugation, eIF2B complex assembly, eIF2Bα E198K HEK293T lysate; assay type: biochemical
T3 construct: endogenous in cells; host or cells: HEK293T, CRISPR knock-in eIF2Bα E198K (homozygous), lysate
Description: (§3) WT or eIF2Bα mutant HEK293T cells were harvested and lysed in 50 mM HEPES, 400 mM KCl, 1 mM DTT, 4 mM Mg(OAc)2, pH 7.5 + 0.5% Triton-X-100 + EDTA-free protease inhibitor cocktail (Roche) on ice for 30 min. Lysates were cleared by centrifugation at 48,000 × g, 4 °C for 30 min. 100 μL of each cleared lysate was loaded onto a 5–20% sucrose gradient prepared in a 13 × 51 mm ultracentrifuge tube using a Gradient Station (Biocomp) and centrifuged in a SW55 Ti rotor at 152,000 × g, 4 °C for 12 h. After centrifugation, 24 × 200 μL fractions were manually collected from the top to bottom of each gradient. Each fraction was subjected to methanol/chloroform precipitation and SDS-PAGE followed by Western Blot with the indicated antibodies. Blots were imaged on a ChemiDoc MP (Bio-Rad), and band intensities were quantified using the instrument’s Image Lab software. Each value was then divided by total intensity obtained across all fractions to determine percent enrichment of each subunit in each fraction.

eIF2B = target: T4, eIF2B (Homo sapiens, UniProt P49770+Q14232+Q9UI10); assay: eIF2B GEF activity assay, targeted, recombinant wild-type eIF2B; assay type: biochemical; settings: dose-response with eIF2B; 95% CI 2.2-5.3 μM; read-out: EC50 of GEF activation (GDP release t1/2)
T4 construct: made in house; host or cells: eIF2Bα: E. coli BL21(DE3)
Description: as §1, §2

[4] = target: T5, eIF2B decamer in WT HEK293T lysate (Homo sapiens, UniProt P49770+Q14232+Q9UI10); assay: Sucrose gradient centrifugation, eIF2B complex assembly, WT HEK293T lysate; assay type: biochemical; settings: 400 mM KCl, 5–20% sucrose gradient
T5 construct: endogenous in cells; host or cells: HEK293T (wild type) lysate
Description: as §3

eIF2Bα = target: T6, eIF2Bα (Homo sapiens, UniProt Q14232); assay: Differential scanning fluorimetry (Protein Thermal Shift), eIF2Bα Tm; assay type: binding; settings: for Tm of eIF2Bα: individual replicates Rep 1-4, control without metabolite about 64.1
T6 construct: made in house; host or cells: E. coli BL21(DE3)
T6 sequence (Q14232 1-305): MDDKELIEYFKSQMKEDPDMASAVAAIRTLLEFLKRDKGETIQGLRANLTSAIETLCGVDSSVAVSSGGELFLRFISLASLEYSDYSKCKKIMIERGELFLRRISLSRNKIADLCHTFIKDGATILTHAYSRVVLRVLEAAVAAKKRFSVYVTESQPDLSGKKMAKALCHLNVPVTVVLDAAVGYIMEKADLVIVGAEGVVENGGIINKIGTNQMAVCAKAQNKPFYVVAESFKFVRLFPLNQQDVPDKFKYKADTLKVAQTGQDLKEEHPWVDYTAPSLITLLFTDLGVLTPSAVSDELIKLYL
Procedure, shortened: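 Human eIF2Bα at 1.5 μM was heated with Thermal Shift dye and metabolites in dose response. Tm for each condition came from Boltzmann fits of the melt curves.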

[5] = target: T7, eIF2B decamer in eIF2Bα^V183F HEK293T lysate (Homo sapiens, UniProt P49770+Q14232+Q9UI10, V183F); assay: Sucrose gradient centrifugation, eIF2B complex assembly, eIF2Bα V183F HEK293T lysate; assay type: biochemical; settings: 500 nM ISRIB, 200 μM F6P
T7 construct: endogenous in cells
Description: as §3

T7 sequence (Q14232 whole entry V183F): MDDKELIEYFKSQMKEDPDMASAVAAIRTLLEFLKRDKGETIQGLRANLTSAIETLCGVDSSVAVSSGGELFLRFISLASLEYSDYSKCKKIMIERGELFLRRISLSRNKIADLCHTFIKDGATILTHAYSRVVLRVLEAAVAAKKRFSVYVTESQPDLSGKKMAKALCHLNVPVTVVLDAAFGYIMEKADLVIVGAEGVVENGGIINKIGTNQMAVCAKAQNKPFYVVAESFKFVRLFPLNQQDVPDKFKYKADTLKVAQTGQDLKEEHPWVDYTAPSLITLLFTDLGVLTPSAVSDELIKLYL
T7 sequence (P49770 whole entry): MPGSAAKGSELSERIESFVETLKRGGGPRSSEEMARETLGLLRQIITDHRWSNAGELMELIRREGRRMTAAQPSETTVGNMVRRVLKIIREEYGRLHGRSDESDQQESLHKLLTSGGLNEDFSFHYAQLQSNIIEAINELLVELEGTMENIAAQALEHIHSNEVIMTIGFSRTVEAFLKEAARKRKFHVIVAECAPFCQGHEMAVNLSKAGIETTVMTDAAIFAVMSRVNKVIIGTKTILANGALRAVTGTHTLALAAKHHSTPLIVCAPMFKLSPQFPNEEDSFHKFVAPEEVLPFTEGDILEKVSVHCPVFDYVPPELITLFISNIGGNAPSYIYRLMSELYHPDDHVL
T7 sequence (Q9UI10 whole entry): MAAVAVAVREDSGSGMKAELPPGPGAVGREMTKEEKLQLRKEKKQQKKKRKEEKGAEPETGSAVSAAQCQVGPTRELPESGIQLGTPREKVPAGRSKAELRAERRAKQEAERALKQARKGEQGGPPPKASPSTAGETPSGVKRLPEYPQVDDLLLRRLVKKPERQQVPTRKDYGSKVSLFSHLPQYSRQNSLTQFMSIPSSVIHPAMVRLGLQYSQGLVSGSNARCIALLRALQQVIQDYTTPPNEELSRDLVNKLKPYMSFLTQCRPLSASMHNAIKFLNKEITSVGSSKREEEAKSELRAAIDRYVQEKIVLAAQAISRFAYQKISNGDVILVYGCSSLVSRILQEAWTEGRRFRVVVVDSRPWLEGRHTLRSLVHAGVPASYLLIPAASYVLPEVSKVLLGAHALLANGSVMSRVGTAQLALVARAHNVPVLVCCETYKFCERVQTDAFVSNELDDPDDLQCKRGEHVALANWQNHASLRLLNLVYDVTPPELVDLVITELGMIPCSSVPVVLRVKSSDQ
T7 sequence (Q9NR50 whole entry partner): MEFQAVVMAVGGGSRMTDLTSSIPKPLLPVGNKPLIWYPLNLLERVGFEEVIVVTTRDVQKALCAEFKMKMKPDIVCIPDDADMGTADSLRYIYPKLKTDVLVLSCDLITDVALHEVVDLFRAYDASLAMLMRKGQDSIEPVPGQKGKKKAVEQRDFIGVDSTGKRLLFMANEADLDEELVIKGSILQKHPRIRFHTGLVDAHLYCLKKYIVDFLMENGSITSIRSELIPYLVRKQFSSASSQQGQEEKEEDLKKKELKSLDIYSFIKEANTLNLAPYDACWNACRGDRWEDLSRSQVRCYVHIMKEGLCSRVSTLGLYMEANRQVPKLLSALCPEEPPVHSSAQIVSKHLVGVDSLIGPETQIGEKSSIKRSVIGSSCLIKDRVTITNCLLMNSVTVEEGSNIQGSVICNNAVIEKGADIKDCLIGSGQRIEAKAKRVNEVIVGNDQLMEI
T7 sequence (Q13144 whole entry partner): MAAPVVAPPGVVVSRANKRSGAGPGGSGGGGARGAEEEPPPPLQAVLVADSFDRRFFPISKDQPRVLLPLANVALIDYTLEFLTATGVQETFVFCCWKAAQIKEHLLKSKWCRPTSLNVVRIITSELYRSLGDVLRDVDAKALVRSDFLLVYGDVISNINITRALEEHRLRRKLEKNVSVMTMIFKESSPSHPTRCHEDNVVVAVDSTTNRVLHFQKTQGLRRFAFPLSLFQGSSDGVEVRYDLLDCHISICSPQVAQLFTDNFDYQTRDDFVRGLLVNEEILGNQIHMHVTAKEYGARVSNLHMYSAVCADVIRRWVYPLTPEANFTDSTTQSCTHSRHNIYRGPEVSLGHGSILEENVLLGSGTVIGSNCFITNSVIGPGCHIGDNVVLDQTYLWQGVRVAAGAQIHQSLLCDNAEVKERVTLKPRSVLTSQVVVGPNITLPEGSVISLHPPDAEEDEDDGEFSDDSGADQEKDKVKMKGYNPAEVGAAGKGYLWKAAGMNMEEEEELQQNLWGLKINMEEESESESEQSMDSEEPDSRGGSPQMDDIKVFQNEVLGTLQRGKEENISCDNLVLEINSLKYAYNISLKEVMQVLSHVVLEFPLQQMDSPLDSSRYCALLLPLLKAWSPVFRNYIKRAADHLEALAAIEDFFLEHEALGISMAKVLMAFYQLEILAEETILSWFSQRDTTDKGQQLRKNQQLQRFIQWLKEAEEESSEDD
T3 sequence (Q14232 whole entry E198K): as the sequence (Q14232 whole entry V183F) above, with F183V, E198K counted along it
T3 sequence (P49770 whole entry): as the sequence (P49770 whole entry) above
T3 sequence (Q9UI10 whole entry): as the sequence (Q9UI10 whole entry) above
T3 sequence (Q9NR50 whole entry partner): as the sequence (Q9NR50 whole entry partner) above
T3 sequence (Q13144 whole entry partner): as the sequence (Q13144 whole entry partner) above
T1 sequence (Q14232 whole entry E198K): as the sequence (Q14232 whole entry V183F) above, with F183V, E198K counted along it
T1 sequence (P49770 whole entry): as the sequence (P49770 whole entry) above
T1 sequence (Q9UI10 whole entry): as the sequence (Q9UI10 whole entry) above
T1 sequence (Q9NR50 whole entry partner): as the sequence (Q9NR50 whole entry partner) above
T1 sequence (Q13144 whole entry partner): as the sequence (Q13144 whole entry partner) above
T5 sequence (P49770 whole entry, one chain of several): as the sequence (P49770 whole entry) above
T5 sequence (Q9UI10 whole entry, one chain of several): as the sequence (Q9UI10 whole entry) above
T5 sequence (Q9NR50 whole entry partner, one chain of several): as the sequence (Q9NR50 whole entry partner) above
T5 sequence (Q13144 whole entry partner, one chain of several): as the sequence (Q13144 whole entry partner) above
T2 sequence (P49770 whole entry, one chain of several): as the sequence (P49770 whole entry) above
T2 sequence (Q9UI10 whole entry, one chain of several): as the sequence (Q9UI10 whole entry) above
T2 sequence (Q9NR50 whole entry partner, one chain of several): as the sequence (Q9NR50 whole entry partner) above
T2 sequence (Q13144 whole entry partner, one chain of several): as the sequence (Q13144 whole entry partner) above
T4 sequence (P49770 whole entry, one chain of several): as the sequence (P49770 whole entry) above
T4 sequence (Q9UI10 whole entry, one chain of several): as the sequence (Q9UI10 whole entry) above
T4 sequence (Q9NR50 whole entry partner, one chain of several): as the sequence (Q9NR50 whole entry partner) above
T4 sequence (Q13144 whole entry partner, one chain of several): as the sequence (Q13144 whole entry partner) above

O=C(CO)[C@@H](O)[C@H](O)[C@H](O)COP(=O)(O)O [F6P, fructose-6-phosphate]
effect on GEF activity of eIF2Bα E198K lysate [1]: does not respond
effect on GEF activity of WT lysate [2]: stimulated
eIF2B decamer formation [3]: unresponsive
EC50 (eIF2B): 3.4 µM
eIF2B decamer formation (migration of eIF2Bα and eIF2Bδ) [4]: induced stabilization of the eIF2B decamer comparable to ISRIB
Tm of eIF2Bα (eIF2Bα; 0.33 mM metabolite): 64.8334 °C and 64.3598 °C and 65.3978 °C and 64.9639 °C
Tm of eIF2Bα (eIF2Bα; 1 mM metabolite): 66.8037 °C and 65.9412 °C and 67.2839 °C and 67.2375 °C
Tm of eIF2Bα (eIF2Bα; 3.3 mM metabolite): 67.7489 °C and 67.4475 °C and 67.8791 °C and 67.7249 °C
Tm of eIF2Bα (eIF2Bα; 10 mM metabolite): 69.8589 °C and 69.0448 °C and 70.0639 °C and 69.9908 °C
Tm shift of eIF2Bα2 (eIF2Bα; largest shift seen in dose-response): 6 °C
eIF2B decamer formation [5]: promoted decamer formation at comparable levels
